Here are results for two compounds from patent US20260021132A1, “PHARMACOLOGICAL THERAPY FOR MITOCHONDRIAL DNA DEPLETION DELETIONS SYNDROME INVOLVING MUTATIONS IN THE GUK1 GENE” (The Trustees of Columbia University in the City of New York, priority 2023, published 2026).

One assay relates to GUK1 patient fibroblasts. The experiment in a line: mtDNA content of proliferating GUK1 patient fibroblasts (quantitative Real-Time PCR, mtDNA/nDNA). It is filed as cell-based, human. The settings on record: three different GUK1 patient proliferating fibroblasts, FIG. 3B. How it is done:
Levels of mtDNA were measured by quantitative Real-Time PCR (in triplicate) and expressed as mtDNA/nDNA (12S/RNase P) and levels are expressed as percent relative to control fibroblast mtDNA. * indicates p<0.05. P values determined by Mann-Whitney U test. Initially, GUK1 mutant patient fibroblasts will be supplemented with dG. Based on published reports of deoxynucleoside supplementation for rescue of other models of mtDNA depletion, fibroblast culture media will be supplemented with dG at concentrations ranging from 1 μM to 400 μM (Camara, et al. 2014; Pontarin, et al. 2012; […], et al. 2003; Bulst, et al. 2012). Throughout each experiment, fibroblasts will be actively proliferating to emphasize use of the de novo dNTP synthesis pathway. The primary outcome measure will be mtDNA copy number comparing untreated and dG-supplemented fibroblasts. To complement the mtDNA results, it will be determined whether the mitochondrial dGTP concentration increases with dG supplementation by measuring mitochondrial dNTP pools. As a functional measure of mitochondrial rescue in treated fibroblasts, we will also measure OxPhos activity.

In assay [1] the test system is dGK-deficient fibroblasts. The settings on record: cited from earlier work.
The conditions of assay [2]: mice; cited from earlier work.

With `Nc1nc2c(ncn2[C@H]2C[C@H](O)[C@@H](CO)O2)c(=O)[nH]1` [dG, deoxyguanosine], the “mtDNA as compared to untreated” value in the assay with GUK1 patient fibroblasts (dG at 1 μM alone) is on record as “increase”.

Turning to `O=c1[nH]cnc2c([C@@H]3N[C@H](CO)[C@@H](O)[C@H]3O)c[nH]c12` [forodesine], the “mtDNA as compared to untreated” value in the assay with GUK1 patient fibroblasts (forodesine at 1 mM alone) is “increase”. Besides, in assay [1], the “efficacy of purine supplementation” value was “enhances the efficacy of purine supplementation”. In addition, in assay [2], the “circulating dG” value is “can increase circulating dG”.
